Laboratory results as given in patent US20220304945A1, “METHODS OF TREATING METABOLIC SYNDROME RELATED CONDITIONS USING RETINOIC ACID RECEPTOR AGONISTS” (Cornell University, priority 2014, published 2022).
“Also recorded” adds a separate entry of the source.

Experiments:
Type in all cases: in vivo, mouse
[1] = Serum triglyceride and cholesterol level measurements, HFD-fed mice (Examples 11-15); conditions: mice fed HFD 4 months, drug in drinking water (AC261066 1.5 mg/100 ml)
Method: AC261066(Lund et al., Discovery of a potent, orally available, and isoform-selective retinoic acid beta2 receptor agonist. J Med Chem. 2005; 48(24):7517-9) and CD1530 (Thacher et al. Therapeutic applications for ligands of retinoid receptors. Curr Pharm Des. 2000; 6(1):25-58) was dissolved in dimethyl sulfoxide (DMSO) at the concentration of 1.5 mg/ml for AC261066 and 2.5 mg/ml for CD1530, and diluted in the drinking water for mice to the final concentration of 1.5 mg/100 ml and 2.5 mg/100 ml, respectively.
WT male C57/BL6 male mice were maintained on either a standard laboratory chow-fed diet (Con) with 13% kcal fat, (diet #5053, Lab Diet, Inc, St. Louis, Mo.) or a high fat, western style diet (HFD) with 45% kcals from fat, (diet #58126, Lab Diet, Inc., St. Louis, Mo.) for 4 months. One month after the start of the HFD treatment, the HFD group was further split into 3 groups for 3 months: i) HFD and the drinking water containing 1% DMSO; ii) high fat diet (HFD) and drinking water containing 1.5 mg/100 ml AC261066, a specific RARβ agonist in 1% DMSO or iii) HFD and drinking water containing 1.5 mg/100 ml CD1530, a specific RARγ agonist in 1% DMSO. Then mice were sacrificed by cervical dislocation. Blood and various tissue samples were harvested.
The analysis of serum triglyceride levels was carried out using a bichromatic assay at the Laboratory of Comparative Pathology of the Memorial Sloan-Kettering Cancer Center. Chow-fed diet (Con) n=4; high fat diet (HFD) n=4; high fat diet (HFD)+AC261066 n=4; and high fat diet (HFD)+CD1530, n=4.

[2] = system: hepatic stellate cells (HSCs); experiment: Hepatic stellate cell activation: α-SMA immunofluorescence of liver, HF-fed mice; conditions: HF diet mice 4 months, vs HF-vehicle
From the text: (§1) Mice, diet, and drug treatment. WT male C57/BL6 male mice were maintained on either a standard laboratory chow-fed diet (CFD) with 13% kcal fat, (diet #5053, Lab Diet, Inc, St. Louis, Mo.) or a high fat, western style diet (HFD) with 60% kcals from fat, (diet #58126, Lab Diet, Inc., St. Louis, Mo.) for 4 months. One month after the start of the high fat diet treatment, the high fat diet group was further split into 2 groups for 3 months: i) high fat diet and the drinking water containing 1% DMSO; ii) high fat diet and the drinking water containing 1.5 mg/100 ml AC261066, a specific RARβ agonist. Then mice were sacrificed by cervical dislocation. Blood and various tissue samples were harvested.
(§2) Combined oil red O and Immunofluorescence. Staining. Fresh mouse liver samples were embedded in optimal cutting temperature (OCT) medium and immediately frozen to −70 centigrade. Cryosections were then fixed in 4% formaldehyde for 1 hr at room temp. Slides were then rinsed three times in deionized water (dH2O) for 30 s, followed by treatment with 0.5% Triton X-100 in PBS for 5 min. Sections were then washed three times with PBS for 5 min. Samples were with incubated 2% bovine serum albumin (BSA) for 30 min at room temperature to block for unspecific antibody binding. Following blocking, sections were washed three times in PBS and incubated with mouse monoclonal antibody against α-SMA (1:500) (Dako, Inc) for 24 h at 4° C. After 24 h sections were washed three times in PB and incubated with Alexa-Flour-488 anti-mouse secondary anti-body (1:500) (Invitrogen, Inc) for 30 min at room temperature. Sections were then washed three times in PBS and incubated with working strength oil-red O solution for 30 minutes at room temperature. Sections were then rinsed for 30 minutes under running tap water and cover-slipped with Vectashield hard mount plus DAPI (Vector Labs, Inc).

[3] = system: α-SMA, SREBP1c, MCP-1, TNF-α mRNA; experiment: Semi-quantitative PCR of liver, HF-fed mice; conditions: HF diet mice 4 months
From the text: as §1
Semi-Quantitate PCR (Liver). Total RNA was extracted from mouse tissues using TRIzol reagent (Life technologies) and (1 μg) was used to synthesize cDNA. cDNA synthesis was performed at 42° C. for 1 h in a final volume of 20 μl using qScript (Quanta, MD). Semi-quantitative PCR were performed Taq DNA polymerase (Invitrogen, CA). Three step PCR was run as follows: 94° C. for 30 s, 58-64° C. for 45 s for primer annealing and 72° C. for 1 min for primer extension. The number of cycles for each primer pair for amplification in the linear range was determined experimentally. PCR products were resolved on 2% agarose gels and visualized by staining with ehtidium bromide. Primers for gene expression used were as follows: […]

HF-fed C57/BL6 mice [4] = experiment: Hepatic steatosis: H and E and oil red O staining of liver, HF-fed mice; conditions: HF diet mice 4 months; vs HF-vehicle
From the text: as §1
(§3) Hematoxylin and Eosin Staining. At sacrifice, fresh mouse liver samples were fixed in 4% formaldehyde solution for 24 hr and embedded in paraffin blocks. Liver paraffin sections were cut 5 microns thick and mounted on glass slides and stained with hematoxylin and eosin (H and E) using standard protocols.
as §2

HF-fed C57/BL6 mice [5] = experiment: Renal lipid accumulation: H and E and oil red O staining of kidney, HF-fed mice; conditions: HF diet mice 4 months; vs HF-vehicle
From the text: as §1
as §3, with “Kidney” for “Liver”
as §2, with “Immunofluorescence staining.” for “Immunofluorescence. Staining.”, “kidney” for “liver”, “Sections were then rinsed for 30 minutes under running tap water and cover-slipped with Vectashield hard mount plus DAPI (Vector Labs, Inc).” left out

Structure (SMILES) | serum cholesterol [1] | serum triglycerides [1] | activation of hepatic stellate cells (α-SMA positive staining in liver) [2] | activation of hepatic stellate cells (α-SMA positive staining in liver) ([2]; listed as AC261011) | hepatic mRNA level of MCP-1 [3] | hepatic mRNA level of TNF-α [3] | hepatic mRNA level of alpha-SMA ([3]; vs HF-vehicle) | hepatic lipid accumulation (oil red O) (HF-fed C57/BL6 mice [4]) | hepatic steatosis / hepatocyte lipid accumulation (H and E) (HF-fed C57/BL6 mice [4]) | renal lipid accumulation (H and E) (HF-fed C57/BL6 mice [5]) | renal lipid accumulation (oil red O) (HF-fed C57/BL6 mice [5]) | hepatic mRNA level of SREBP1-c ([3]; vs control diet)
CCCCOCCOc1nc(-c2ccc(C(=O)O)c(F)c2)sc1C [AC261066] | greatly reduces; also recorded: significantly lower | greatly reduces; also recorded: significantly lower | diminished; also recorded: prevent; also recorded: decreased intensity and regions of α-SMA positive staining | decreased | decreases; also recorded: significantly diminish | decreases | decreased | marked diminished | diminished; also recorded: prevent; also recorded: marked decreased | diminished; also recorded: markedly decreased | marked diminished; also recorded: comparably less | –
O=C(O)c1ccc(-c2ccc3cc(O)c(C45CC6CC(CC(C6)C4)C5)cc3c2)cc1 [CD1530] | no decrease | no decrease | no evidence decreased | – | markedly elevated | markedly elevated | – | not observed; also recorded: no evidence decreased | no decrease | no decrease | – | markedly higher
